SMILES strings stand for the structures.

A word on the IC50: it is the concentration at which inhibition is half-maximal.

T1 sequence (Q05397 422-680 limits assumed): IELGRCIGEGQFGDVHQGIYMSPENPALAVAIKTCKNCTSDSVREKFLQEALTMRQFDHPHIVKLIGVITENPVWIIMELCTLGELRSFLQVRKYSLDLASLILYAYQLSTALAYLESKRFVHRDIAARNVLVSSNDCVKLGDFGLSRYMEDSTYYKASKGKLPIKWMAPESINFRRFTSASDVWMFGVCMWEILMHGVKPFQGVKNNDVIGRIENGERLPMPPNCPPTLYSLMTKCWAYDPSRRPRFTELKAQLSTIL

This test concerns the target T1, recombinant human FAK1 (Homo sapiens, UniProt Q05397).
T1 construct: fused on or other part: N-terminal 6xHis tag
The test is described as follows: FAK1 HTRF assay. The test is classed as biochemical. On the procedure:
Active FAK1 was prepared for use in the Homogeneous Time-Resolved Fluorescence (HTRF) assay. Briefly, N-terminal 6 His tagged recombinant human FAK1, from residue 692-end (GenBank accession no. L13616) was expressed by Bacculovirus in sf9 cells. […] A 1.6 mg/mL (45 μM) stock was used in the HTRF assay at a final concentration of 10 nM.
Gastrin precursor (tyr87) biotinylated peptide which contains the residues surrounding tyrosine 87 (EEAY*GWM) of gastrin precursor was obtained (Cell Signaling Tech, Item no. 1310, Lot 7). The peptide was provided at a stock concentration of 6 μM, and used a final concentration of 0.5 μM in the HTRF assay.
10 mM stock in 100 μL Enzyme assay buffer pH7.4 was prepared freshly and used at a final concentration of 10 μM in the assay.
Powders were dissolved in 100% DMSO to a final stock concentration of 10 mM. The volume needed (in μL) to add for 10 mM=mg powder is 10^5/MW of compound. The final compound concentration in the assay plate started at 10 μM.
Pfizer FAK inhibitor PF-562271 (N-methyl-N-(3-(((2-((2-oxoindolin-5-yl)amino)-5-(trifluoromethyl)pyrimidin-4-yl)amino)methyl)pyridin-2-yl)methanesulfonamide) was prepared as per the reported procedure from US Patent Publication No. 2005/256145A1.
Streptavidin-Allophycocyanin was obtained (Prozyme, Cat. No. PJ25S. SA-APC was provided at a stock concentration of 2.06 mg/mL, where APC concentration was 11.6 μM and the streptavidin concentration was 15.5 μM. SA-APC was used at a final concentration of 12 nM in the assay (based on streptavidin concentration).
This reagent was obtained from Perkin ElmerAD0068. Europium-W1024-PT-66 Anti Phospho Tyrosine Ab is a monoclonal IgG1 that recognizes phospho tyrosine peptide. 100 μg/mL stock was used at a final concentration of 0.1 nM in the assay.
• 1. The compound dilutions were made by TECAN liquid handler as per the scheme in FIG. 1. • 2. 16 μL of diluted compound was added to each well of the assay plate using TECAN liquid handler. • 3. 20 μL of substrate mix (biotinylated gastrin precursor) was added into each well of the assay plate manually. • 4. 10 μL of enzyme mix (FAK1) was added to each well except mins. • 5. The plate was incubated at rt for 45 min with shaking. • 6. The HTRF mix was prepared and 75 μL was added to the HTRF plate. • 7. After the incubation was over, 10 μL of the mixture was transferred to the HTRF assay plate and incubated for 45 min at rt with shaking. • 8. The readings were taken in Pherastar in HTRF mode (ext 337 nm, em 665 & 620 nm) • 9. The results were analyzed using Graphpad Prism® software after calculation the z factor signal window and % inhibition. • 10. The IC50 was calculated.
A general note: In TR-FRET formats the signal depends on donor and acceptor labels being close together.
Consider `COc1cc(Nc2cc3c(ccn3S(=O)(=O)c3ccccc3C#N)cn2)ccc1N1CCN(C)CC1` [Example 492], for which the IC50 was less than 20 nM.
As for `C[C@H]1CN(C)CCN1c1ccc(Nc2ncc3ccn(Cc4ccccc4N(C)S(C)(=O)=O)c3n2)cc1` [Example 495], the IC50 is less than 20 nM.
With `CN1CCN(c2ccc(Nc3ncc4c(n3)N(S(=O)(=O)c3cccc5cccnc35)CC43CC3)cc2)CC1` [Example 499], the IC50 is less than 20 nM.
For `CN1CCCN(c2ccc(Nc3cc4c(ccn4S(=O)(=O)c4ccccc4C#N)cn3)cc2)CC1` [Example 505], the IC50 was less than 20 nM.
Consider `CC1CN(c2ccc(Nc3ncc4ccn(Cc5ccccc5N(C)S(C)(=O)=O)c4n3)cc2)CC(C)N1` (stereo not drawn) [Example 523], for which the IC50 was less than 20 nM.
In the case of `CC1CN(c2ccc(Nc3cc4c(ccn4S(=O)(=O)c4ccccc4C#N)cn3)cc2)CC(C)N1` (stereo not drawn) [Example 529], the IC50 was less than 20 nM.
`CN1CCC(Oc2ccc(Nc3ncc4ccn(Cc5ccccc5N(C)S(C)(=O)=O)c4n3)cc2)CC1` [Example 531]: the IC50 is less than 20 nM.
The figure for `CN(c1ccccc1Cn1ccc2cnc(Nc3ccc(N4CCC(CO)CC4)cc3)nc21)S(C)(=O)=O` [Example 566] is less than 20 nM; for `CN(C)C1CCN(c2ccc(Nc3ncc4ccn(Cc5ccccc5N(C)S(C)(=O)=O)c4n3)cc2)C1` (stereo not drawn) [Example 571] it is less than 20 nM.
Next, `CN(c1ccccc1Cn1ccc2cnc(Nc3ccc(OCCN4CCNCC4)cc3)nc21)S(C)(=O)=O` [Example 572]: less than 20 nM; `CN(C)C1CN(c2ccc(Nc3ncc4ccn(Cc5ccccc5N(C)S(C)(=O)=O)c4n3)cc2)C1` [Example 588]: less than 20 nM; `CN(C)C1CCN(c2ccc(Nc3ncc4ccn(Cc5ccccc5N(C)S(C)(=O)=O)c4n3)cc2F)C1` (stereo not drawn) [Example 590]: less than 20 nM.
With `CN(c1ccccc1Cn1ccc2cnc(Nc3ccc(N4CCC(C)(O)CC4)cc3)nc21)S(C)(=O)=O` [Example 638], the IC50 was less than 20 nM.
As for `COc1ccc(N(C)S(C)(=O)=O)c(Cn2ccc3cnc(Nc4ccc(N5CCNCC5)cc4)nc32)c1` [Example 661], the IC50 is less than 20 nM.
In the case of `C[C@H]1CN(C(=O)c2ccc(Nc3ncc4ccn(Cc5cccnc5N(C)S(C)(=O)=O)c4n3)cc2)CCN1` [Example 682], the IC50 was more than 1000 nM.
For `COc1ccc(N(C)S(C)(=O)=O)c(Cn2ccc3cnc(Nc4ccc(N5CCNCC5)c(F)c4)nc32)c1` [Example 700], the IC50 was less than 20 nM.
Next, `CN1CCC(NC(=O)c2ccc(Nc3ncc4c(n3)N(S(=O)(=O)c3cccc5cccnc35)CC4(C)C)cc2)CC1` [Example 702]: less than 20 nM; `COc1ccc(N(C)S(C)(=O)=O)c(Cn2ccc3cnc(Nc4ccc(N5CCC(N(C)C)CC5)c(OC)c4)nc32)c1` [Example 703]: less than 20 nM.
The figure for `CCC1CN(c2ccc(Nc3ncc4ccn(Cc5cc(OC)ccc5N(C)S(C)(=O)=O)c4n3)cc2)CCN1` (stereo not drawn) [Example 704] is less than 20 nM.
Regarding `COc1ccc(N(C)S(C)(=O)=O)c(Cn2ccc3cnc(Nc4ccc(N5CCC(N(C)C)CC5)c(C)c4)nc32)c1` [Example 705], the IC50 is less than 20 nM.
In the case of `CNC1CCN(c2ccc(Nc3ncc4ccn(Cc5cc(OC)ccc5N(C)S(C)(=O)=O)c4n3)cc2)CC1` [Example 709], the IC50 is less than 20 nM.
For the molecule `C[C@@H]1CN(c2ccc(Nc3ncc4ccn(Cc5ccccc5N(C)S(C)(=O)=O)c4n3)cc2C2CC2)CCN1` [Example 710], the IC50 was less than 20 nM.
On to `CN(c1ccc(C#N)cc1Cn1ccc2cnc(Nc3ccc(N4CCNCC4)cc3)nc21)S(C)(=O)=O` [Example 715], for which the IC50 is less than 20 nM.
With `CN(c1ccc(OC(F)F)cc1Cn1ccc2cnc(Nc3ccc(N4CCNCC4)cc3)nc21)S(C)(=O)=O` [Example 717], the IC50 was less than 20 nM.
Regarding `Cc1ccc(N(C)S(C)(=O)=O)c(Cn2ccc3cnc(Nc4ccc(N5CCNCC5)cc4)nc32)c1` [Example 759, N-methyl-N-(4-methyl-2-((2-((4-(piperazin-1-yl)phenyl)amino)-7H-pyrrolo[2,3-d]pyrimidin-7-yl)methyl)phenyl)methanesulfonamide], the IC50 was less than 20 nM.
With `Cc1ccc(N(C)S(C)(=O)=O)c(Cn2ccc3cnc(Nc4ccc(N5CCC(N(C)C)CC5)cc4)nc32)c1` [Example 761], the half-inhibitory concentration (IC50) was less than 20 nM.
Turning to `Cc1ccc(N(C)S(C)(=O)=O)c(Cn2ccc3cnc(Nc4ccc(N5CCN[C@@H](C)C5)cc4)nc32)c1` [Example 766], the IC50 is less than 20 nM.
The figure for `Cc1cn(S(=O)(=O)c2cccc3cccnc23)c2nc(Nc3ccc(N4CCNCC4)cc3)ncc12` [Example 769] is less than 20 nM.
Turning to `CN(C)C1CCN(c2ccc(Nc3ncc4ccn(Cc5cc(F)ccc5N(C)S(C)(=O)=O)c4n3)cc2)CC1` [Example 778], the IC50 was less than 20 nM.
Take `Cc1cc(Nc2ncc3ccn(Cc4cc(F)ccc4N(C)S(C)(=O)=O)c3n2)ccc1C1CCNCC1` [Example 782]: the IC50 was less than 20 nM.
With `Cc1ccc(N(C)S(C)(=O)=O)c(Cn2ccc3cnc(Nc4ccc(C5CCNCC5)cc4)nc32)c1` [Example 789], the half-inhibitory concentration (IC50) is less than 20 nM.
As to `CN(c1ccc(F)cc1Cn1ccc2cnc(Nc3ccc4c(c3)CC(=O)N4)nc21)S(C)(=O)=O` [Example 792], the IC50 is less than 20 nM.
On to `C[C@@H]1CN(c2ccc(Nc3ncc4ccn(Cc5cc(F)ccc5N(C)S(C)(=O)=O)c4n3)cc2)CCN1` [Example 793], for which the IC50 is less than 20 nM.
Turning to `Cc1cc(Nc2ncc3ccn(Cc4cc(F)ccc4N(C)S(C)(=O)=O)c3n2)ccc1N1CCC(N(C)C)CC1` [Example 794], the IC50 is less than 20 nM.
Take `CN(C)C1CCN(c2ccc(Nc3ncc4ccn(Cc5cc(Cl)ccc5N(C)S(C)(=O)=O)c4n3)cc2)CC1` [Example 796]: the IC50 is less than 20 nM.
On to `CN(c1ccc(F)cc1Cn1ccc2cnc(Nc3ccc(N4CCC(N)CC4)cc3)nc21)S(C)(=O)=O` [Example 799], for which the IC50 was less than 20 nM.
On to `CN(c1ccc(F)cc1Cn1ccc2cnc(Nc3ccc(N4CCCC(N)C4)cc3)nc21)S(C)(=O)=O` (stereo not drawn) [Example 800], for which the IC50 is less than 20 nM.
For `COc1cc(Nc2ncc3ccn(Cc4cc(F)ccc4N(C)S(C)(=O)=O)c3n2)ccc1N1CCNCC1` [Example 801], the IC50 was less than 20 nM.
The figure for `CN(c1ccc(F)cc1Cn1ccc2cnc(Nc3ccc(N4CCNCC4)c(F)c3)nc21)S(C)(=O)=O` [Example 802] is less than 20 nM; for `CN(c1ccc(F)cc1Cn1ccc2cnc(Nc3ccc(N4CCNCC4)cc3)nc21)S(C)(=O)=O` [Example 805] it is less than 20 nM; for `CN(C)C1CCC(c2ccc(Nc3ncc4ccn(Cc5cc(F)ccc5N(C)S(C)(=O)=O)c4n3)cc2)CC1` (stereo not drawn) [Example 806] it is less than 20 nM.
On to `Cc1ccc(N(C)S(C)(=O)=O)c(Cn2ccc3cnc(Nc4ccc(C5CCNCC5)c(C)c4)nc32)c1` [Example 807], for which the half-inhibitory concentration (IC50) was less than 20 nM.
As for `Cc1ccc(N(C)S(C)(=O)=O)c(Cn2ccc3cnc(Nc4ccc(N5CCN[C@@H](C)C5)c(F)c4)nc32)c1` [Example 809], the IC50 is less than 20 nM.
With `C[C@H]1CN(c2ccc(Nc3ncc4ccn(Cc5cc(C(F)(F)F)ccc5N(C)S(C)(=O)=O)c4n3)cc2)CCN1` [Example 810], the IC50 is less than 20 nM.
For the molecule `CN(c1ccc(C(F)(F)F)cc1Cn1ccc2cnc(Nc3ccc(N4CCNCC4)cc3)nc21)S(C)(=O)=O` [Example 892], the IC50 was less than 20 nM.
Consider `C[C@H]1CN(c2ccc(Nc3ncc4ccn(Cc5cc(Cl)ccc5N(C)S(C)(=O)=O)c4n3)cc2)CCN1` [Example 899], for which the IC50 is less than 20 nM.
On to `CN(c1ccc(F)cc1Cn1ccc2cnc(Nc3ccc(N4CCN(CCO)CC4)cc3)nc21)S(C)(=O)=O` [Example 920], for which the IC50 was less than 20 nM.
`Cc1ccc(N(C)S(C)(=O)=O)c(Cn2ccc3cnc(Nc4ccc(N5CCNCC5)c(F)c4)nc32)c1` [Example 941]: the IC50 was less than 20 nM.
On to `COc1cc(Nc2ncc3ccn(Cc4cc(C)ccc4N(C)S(C)(=O)=O)c3n2)ccc1N1CCNCC1` [Example 942], for which the IC50 was less than 20 nM.
Take `Cc1ccc(N(C)S(C)(=O)=O)c(Cn2ccc3cnc(Nc4ccc(N5CCC(N)CC5)cc4)nc32)c1` [Example 977]: the IC50 was less than 20 nM.
With `Cc1ccc(N(C)S(C)(=O)=O)c(Cn2ccc3cnc(Nc4ccc(N5CCCC(N)C5)cc4)nc32)c1` (stereo not drawn) [Example 978], the IC50 was less than 20 nM.

Source of the values: patent US20160222014A1, “COMPOUNDS FOR REGULATING FAK AND/OR SRC PATHWAYS” (ASANA BIOSCIENCES, LLC, priority 2013, published 2016).
